Test results as given in patent US5470833A, “Endothelin antagonistic peptide derivatives” (Banyu Pharmaceutical Co., Ltd., priority 1990, dated 1995).
Numbered stars: 1 amine (or outer) side, 2 acyl side, 3 side chain; on linkers, the order of the positions; unused ones are H or OH. Square brackets hold non-standard residues; d marks the D form. Peptide text beside a SMILES is read from it. * marks the point of attachment. d(β3hW) = N[C@@H](CC(=O)O)Cc1c[nH]c2ccccc12; dNMeW = CN[C@H](Cc1c[nH]c2ccccc12)C(=O)O; β3hF = N[C@H](CC(=O)O)Cc1ccccc1; dPhg = N[C@@H](C(=O)O)c1ccccc1; 3Abz = Nc1cccc(C(=O)O)c1; Nva = CCC[C@H](N)C(=O)O; Cbz = O=C(OCc1ccccc1)*; Boc = CC(C)(C)OC(=O)*; CO = O=C([*:1])[*:2]; NHBn = c1ccc(CN*)cc1; Piv = CC(C)(C)C(=O)*; NHPh = c1ccc(N*)cc1; OBn = c1ccc(CO*)cc1; Bn = c1ccc(C*)cc1; βAla = NCCC(=O)O

Molecular target: T1, endothelin receptor (membrane of smooth muscle tissue of porcine aorta) (Sus scrofa, UniProt Q29010)
T1 construct: from tissue; host or cells: porcine aorta smooth muscle, membrane fraction
T1 sequence (Q29010 21-427): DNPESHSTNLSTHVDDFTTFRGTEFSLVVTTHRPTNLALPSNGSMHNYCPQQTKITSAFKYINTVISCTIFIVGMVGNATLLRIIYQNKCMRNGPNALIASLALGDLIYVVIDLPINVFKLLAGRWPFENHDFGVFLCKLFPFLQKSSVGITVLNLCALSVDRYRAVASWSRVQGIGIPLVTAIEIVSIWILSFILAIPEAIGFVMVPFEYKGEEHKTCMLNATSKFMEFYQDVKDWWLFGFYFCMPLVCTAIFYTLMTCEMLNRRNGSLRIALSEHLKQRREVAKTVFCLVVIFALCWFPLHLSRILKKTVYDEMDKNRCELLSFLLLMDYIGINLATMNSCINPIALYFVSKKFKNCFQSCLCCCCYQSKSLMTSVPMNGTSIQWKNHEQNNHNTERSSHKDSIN
Experiment: Endothelin binding inhibition test (125I-endothelin-1, porcine aorta smooth muscle membrane)
Details: 1.1 μM test compound (no mark); read-out: 125I-endothelin-1 binding inhibition
Protocol: The smooth muscle tissue of porcine aorta was homogenized in a buffer solution of 10 mM MOPS, pH 7.4, at 4° C. by a polytron. To the homogenate, sucrose was added to a concentration of 20%, and the mixture was centrifuged at 1,000×g for 15 minutes, and the supernatant was further centrifuged at 10,000×g for 15 minutes. The supernatant thereof was further centrifuged at 90,000×g for 40 minutes. The membrane precipitate thereby obtained was suspended in a buffer solution of 5 mM HEPES/Tris, pH 7.4, at a concentration of 25 mg/ml.
Then, 16 μl of this membrane suspension was added to 340 μl of 50 mM Tris/HCl buffer, pH 7.4, containing 10 μM calcium chloride, 10 μM magnesium chloride, 0.1 mM PMSF, 1 μM pepstatin A, 2 μM leupeptin, 1 mM 1,10-phenanthroline and 0.1% bovine serum albumin. To this suspension, 4 μl of (A) endothelin-1 (for nonspecific binding; 0.2 μM as the final concentration), (B) buffer solution A (for total control binding), or (C) a test compound (1.1 μM or 10 μM as the final concentration),was added. Further, to each suspension, 40 μl of ^125 I-endothelin-1 (12000-18000 cpm) was added. These mixtures were incubated at 25° C. for 4 hours, then subjected to filtration on a glass filter GF/C and then washed with 5 mM HEPES/Tris, pH 7.4, containing 0.3% bovine serum albumin. Then, the radioactivity trapped by the glass filter was measured, and the ^125 I-endothelin-1 binding inhibition D (%) at 1.1 μM or 10 μM of the test compound was determined by the following equation. [formula] Each test was performed in triplicate.
The test compounds are indicated by Compound Nos.

| SMILES | inhibition at 1.1 µM |
| --- | --- |
| CC(C)C[C@H](NC(=O)OC(C)(C)C)C(=O)N[C@H](Cc1c[nH]c2ccccc12)C(=O)N[C@H](CO)C(=O)O [Compound 7] (Boc-Leu-[dW]-[dS]-OH) | 35% |
| CC(C)C[C@H](NC(=O)OC(C)(C)C)C(=O)N[C@H](Cc1c[nH]c2ccccc12)C(=O)N[C@H](Cc1ccc(O)cc1)C(=O)O [Compound 138] (Boc-Leu-[dW]-[dY]-OH) | 72% |
| CC(C)C[C@H](NC(=O)OC(C)(C)C)C(=O)N[C@H](Cc1c[nH]c2ccccc12)C(=O)NCC(O)C(=O)O (stereo partly shown) [Compound 17] | 38% |
| CC(C)C[C@H](NC(=O)N1CCCCCC1)C(=O)N[C@H](Cc1c[nH]c2ccccc12)C(=O)N[C@H](C)CS(=O)(=O)O [Compound 160] | 86% |
| CC(C)C[C@H](NC(=O)OC(C)(C)C)C(=O)N[C@H](Cc1c[nH]c2ccccc12)C(=O)N[C@@H](C(=O)O)c1ccccc1 [Compound 40] (Boc-Leu-[dW]-[dPhg]-OH) | 36% |
| CC(C)C[C@H](NC(=O)OC(C)(C)C)C(=O)N[C@H](Cc1c[nH]c2ccccc12)C(=O)N[C@H](Cc1ccc(OCc2ccccc2)cc1)C(=O)O [Compound 137] (Boc-Leu-[dW]-[dY](Bn)-OH) | 46% |
| CC(C)C[C@H](NC(=O)OC(C)(C)C)C(=O)N[C@H](Cc1c[nH]c2ccccc12)C(=O)N[C@H](CC(=O)OCc1ccccc1)C(N)=O [Compound 35] (Boc-Leu-[dW]-[dD](OBn)-NH2) | 35% |
| CC(C)C[C@H](NC(=O)OC(C)(C)C)C(=O)N[C@H](Cc1c[nH]c2ccccc12)C(=O)N[C@H](CC(=O)O)C(=O)Nc1ccccc1 [Compound 44] (Boc-Leu-[dW]-[dD]-NHPh) | 30% |
| CC(C)C[C@H](NC(=O)OC(C)(C)C)C(=O)N[C@H](Cc1c[nH]c2ccccc12)C(=O)NCC(=O)NCC(=O)O [Compound 23] (Boc-L[dW]GG-OH) | 33% |
| CC(C)C[C@H](NC(=O)NC12CC3CC(CC(C3)C1)C2)C(=O)N[C@H](Cc1c[nH]c2ccccc12)C(=O)NCCC(=O)O [Compound 113] | 69% |
| CC(C)C[C@H](NC(=O)N1CCCCCC1)C(=O)N[C@H](Cc1c[nH]c2ccccc12)C(=O)N[C@H](C)CC(=O)O [Compound 52] | 84% |
| CC(C)C[C@H](NC(=O)N1CCCCCC1)C(=O)N[C@H](CC1C(=O)Nc2ccccc21)C(=O)N[C@H](C)CC(=O)O (stereo partly shown) [Compound 139] | 66% |
| CCC[C@H](NC(=O)OC(C)(C)C)C(=O)N[C@H](Cc1c[nH]c2ccccc12)C(=O)NCCC(=O)O [Compound 28] (Boc-[Nva]-[dW]-[βAla]-OH) | 38% |
| CC(C)C[C@H](NC(=O)OC(C)(C)C)C(=O)N[C@H](Cc1c[nH]c2ccccc12)C(=O)N[C@@H](C(=O)O)c1cccs1 [Compound 42] | 56% |
| CC(C)C[C@H](NC(=O)N1CCCCCC1)C(=O)N[C@H](Cc1cn(C=O)c2ccccc12)C(=O)N[C@H](Cc1c[nH]cn1)C(=O)O [Compound 156] | 86% |
| CC(C)C[C@H](NC(=O)OC(C)(C)C)C(=O)N[C@H](Cc1c[nH]c2ccccc12)C(=O)N[C@H](CCCCNC(=O)OCc1ccccc1)C(=O)O [Compound 8] (Boc-Leu-[dW]-[dK](Cbz)-OH) | 56% |
| CC(C)C[C@H](NC(=O)Nc1ccccc1)C(=O)N[C@H](Cc1c[nH]c2ccccc12)C(=O)NCCC(=O)O [Compound 84] ({NHPh-CO}-Leu-[dW]-[βAla]-OH) | 70% |
| CNC(=O)CCNC(=O)[C@@H](Cc1c[nH]c2ccccc12)NC(=O)[C@H](CC(C)C)NC(=O)N1CCCCCC1 [Compound 134] | 32% |
| CC(C)C[C@H](NC(=O)N(CC(C)C)C1CCCC1)C(=O)N[C@H](Cc1c[nH]c2ccccc12)C(=O)N[C@H](Cc1c[nH]c2ccccc12)C(=O)O [Compound 172] | 87% |

Other lines, results leading:

| inhibition at 1.1 µM | SMILES |
| --- | --- |
| 33% | CC(C)C[C@H](NC(=O)NCc1ccccc1)C(=O)N[C@H](Cc1c[nH]c2ccccc12)C(=O)NCCC(=O)O [Compound 115] ({NHBn-CO}-Leu-[dW]-[βAla]-OH) |
| 86% | CC(C)C[C@H](NC(=O)N1CCCCCC1)C(=O)N[C@H](Cc1cn(C=O)c2ccccc12)C(=O)N[C@H](C)CS(=O)(=O)O [Compound 162] |
| 75% | CC(C)C[C@H](NC(=O)OC(C)(C)C)C(=O)N[C@H](Cc1c[nH]c2ccccc12)C(=O)N[C@H](Cc1ccccc1)C(=O)O [Compound 39] (Boc-Leu-[dW]-[dF]-OH) |
| 75% | COC(=O)[C@@H](Cc1c[nH]cn1)NC(=O)[C@@H](Cc1c[nH]c2ccccc12)NC(=O)[C@H](CC(C)C)NC(=O)N1CCCCCC1 [Compound 47] |
| 31% | CC(C)C[C@H](NC(=O)OC(C)(C)C)C(=O)N[C@H](Cc1c[nH]c2ccccc12)C(=O)Nc1cccc(C(=O)O)c1 [Compound 12] (Boc-Leu-[dW]-[3Abz]-OH) |
| 70% | CC(C)C[C@H](NC(=O)N1C(C)(C)CCCC1(C)C)C(=O)N[C@H](Cc1c[nH]c2ccccc12)C(=O)NCCC(=O)O [Compound 74] |
| 39% | CC(C)C[C@H](NC(=O)OC(C)(C)C)C(=O)N[C@H](Cc1c[nH]c2ccccc12)C(=O)N[C@H](CC(=O)O)Cc1ccccc1 [Compound 21] (Boc-Leu-[dW]-[β3hF]-OH) |
| 74% | CC(C)C[C@H](NC(=O)OC(C)(C)C)C(=O)N[C@H](Cc1c[nH]c2ccccc12)C(=O)NC(Cc1nccs1)C(=O)O (stereo partly shown) [Compound 16] |
| 39% | CC[C@H](C)[C@H](NC(=O)OC(C)(C)C)C(=O)N[C@H](Cc1c[nH]c2ccccc12)C(=O)NCCC(=O)O [Compound 54] (Boc-Ile-[dW]-[βAla]-OH) |

Same assay, conditions: 10 μM test compound (marked *); read-out: 125I-endothelin-1 binding inhibition

| SMILES | inhibition at 10 µM |
| --- | --- |
| CC(C)C[C@H](NC(=O)OC(C)(C)C)C(=O)N[C@H](Cc1c[nH]c2ccccc12)C(=O)N[C@@H](C(=O)O)C(C)C [Compound 43] (Boc-Leu-[dW]-[dV]-OH) | 36% |
| CC(C)C[C@H](NC(=S)Nc1ccccc1)C(=O)N[C@H](Cc1c[nH]c2ccccc12)C(=O)NCC(=O)O [Compound 91] | 51% |
| CC(C)C[C@H](NC(=O)C(C)(C)C)C(=O)N[C@H](Cc1c[nH]c2ccccc12)C(=O)NCCC(=O)O [Compound 69] (Piv-Leu-[dW]-[βAla]-OH) | 71% |
| CC(C)C[C@H](NC(=O)NN1CCCC1)C(=O)N[C@H](Cc1c[nH]c2ccccc12)C(=O)NCCC(=O)O [Compound 152] | 58% |

The remaining lines, values ahead:

| inhibition at 10 µM | SMILES |
| --- | --- |
| 55% | CC(C)C[C@H](NC(=O)OC(C)(C)C)C(=O)N[C@H](Cc1c[nH]c2ccccc12)C(=O)N[C@H](CC(N)=O)C(=O)O [Compound 9] (Boc-Leu-[dW]-[dN]-OH) |
| 36% | CC(C)C[C@H](NC(=O)OC(C)(C)C)C(=O)N[C@H](Cc1c[nH]c2ccccc12)C(=O)N[C@H](Cc1ccccc1)CS(=O)(=O)O [Compound 26] |
| 70% | COC(CNC(=O)[C@@H](Cc1c[nH]c2ccccc12)NC(=O)[C@H](CC(C)C)NC(=O)OC(C)(C)C)C(=O)O (stereo partly shown) [Compound 146] |
| 32% | CC(C)C[C@H](NC(=O)OC(C)(C)C)C(=O)N(C)[C@H](Cc1c[nH]c2ccccc12)C(=O)NCCC(=O)O [Compound 32] (Boc-Leu-[dNMeW]-[βAla]-OH) |

Same assay, conditions: read-out: 125I-endothelin-1 binding inhibition

| SMILES | inhibition at 10 µM |
| --- | --- |
| CC(C)C[C@H](NC(=O)OC(C)(C)C)C(=O)N[C@H](Cc1c[nH]c2ccccc12)C(=O)N[C@@H](CC(=O)O)Cc1c[nH]c2ccccc12 [Compound 19] (Boc-Leu-[dW]-[d(β3hW)]-OH) | 53% |
